# Assays:
# Format in all cases: cell-based
# [1] = system: hMPV A2 TN/94-49; assay: HMPV antiviral assay Method 1 (LLC-MK2 cells, ATP-Lite); conditions: hMPV A2 TN/94-49, LLC-MK2 cells
# Procedure: In vitro HMPV antiviral activity was evaluated using the clinical isolate A2 strain TN 94-49 (obtained from Dr. John Williams, Vanderbilt University, Tennessee) and […] cells (ATCC #CCL-7), an immortalized kidney epithelial cell line from Macaca mulatta. Compounds were resuspended in dimethyl sulfoxide (DMSO) at 10 mM, serially diluted and added to a 384-well source plate. Subsequently, the compounds were diluted and transferred onto 384-well assay plates using the Echo-650 automated liquid handling system (Beckman Coulter, Indiana). The test compounds were assessed in duplicate at a top concentration of 2 μM followed by 2.5-fold serial dilutions to give a total of 10 concentration points. DMSO control wells were also included on the assay plates and were either infected or not, acting as positive and negative controls. A2 TN 94-49 virus infections were performed in-suspension with LLC-MK2 cells. The cells were washed twice with PBS and removed from the cell-culture flask with 0.25% trypsin-EDTA (Thermo Fisher Scientific, MA). The trypsin-EDTA was inactivated by resuspending in 2% fetal bovine serum (FBS) and OptiMEM (ThermoFisher Scientific, MA) containing 1% penicillin-streptomycin. Cells were pelleted by centrifuging for 5 minutes at 800 rpm, the supernatant was removed, and cells were re-suspended and washed in PBS plus 100 μg/mL CaCl2). This step was performed twice. Cells were then re-suspended in serum-free (SF)-OptiMEM containing 4 μg/mL TPCK-Trypsin (Sigma Aldrich, MO), 1% penicillin-streptomycin (ThermoFisher Scientific, MA) and 100 μg/mL CaCl2). Cells were counted and seeded at a density of 5,000 cells/well, 12.5 μL/well. Virus infections were done at a multiplicity of infection (MOI) of 0.005 with 12.5 μL added per well. Virus infections were performed in infection media which contained SF-OptiMEM, 100 μg/mL CaCl2) and 1% penicillin-streptomycin. HMPV viral stocks are suspended in infection media+5% glycerol, thus an equal volume of infection media+5% glycerol was added to uninfected wells to equalize the final % glycerol across all wells of the assay plate. The final concentration of TPCK-trypsin was 2 μg/mL. The assay plates were incubated at 37° C., 5% CO2 for 7 days. After 7 days incubation, 12.5 μL of ATP-Lite (PerkinElmer, MA) was added to each well and the raw luminescence values were determined using the Envision 2104 (Perkin Elmer, MA). The average of the raw luminescence values for the cells and virus only positive control wells was subtracted from all conditions tested and the percent cell health was determined by dividing these values by the average of the cells only negative control wells. EC50 values were then calculated by non-linear regression using a four-parameter curve logistic equation. The curve fit model employed was XLFit Dose Response One Site Model 200: y=(A+(B/(1+((x/C)^D)))), where A is the minimum y value, B is the maximum y value, C is the log EC50value, and D is the slope factor. Method 2: In Vitro HMPV Antiviral Activity was Evaluated Using the Clinical Isolate A2 Strain TN 94-49
# [2] = system: hMPV A2 TN/94-49; assay: HMPV antiviral assay Method 2 (LLC-MK2 cells with CP-100-356, ATP-Lite); conditions: hMPV A2 TN/94-49, LLC-MK2 cells, 4 μM CP-100-356, Method 2
# How it was run: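 The protective effect was measured after 7 days at 37 °C by ATP-Lite luminescence and expressed as % cell health relative to virus-only and cells-only wells, with EC50 from a four-parameter logistic. Cells were LLC-MK2 infected with strain A2 TN/94-49 (MOI 0.16) with final 2 μM CP-100-356 and 2 μg/mL TPCK-trypsin; 10 duplicate concentrations from 200 nM, 2.5-fold steps.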
# [3] = system: HUMAN RSV-A (“LONG” STRAIN); assay: RSV-A assay (CPE, ATPlite) in Hep-2 cells; conditions: human respiratory syncytial virus, 120 h, MOI 0.1, 5-day incubation
# Source text: Methods for RSV-A Assay Hep-2 cells, (originally derived from tumors grown in irradiated-cortisonised weanling rats that had been injected with epidermoid carcinoma tissue from the larynx of a person, but later found to be indistinguishable from HeLa cells by PCR DNA analysis), were used for the culturing of genotype A, “Long” strain RSV. Flasks were inoculated with RSV and viral stocks were collected once cytopathic effect (CPE) was greater than 90%. Viral stocks in 25% sucrose media were snap frozen using liquid nitrogen to increase viral stability. Viral stock titers were quantified by tissue culture infectious dose 50% (TCID50) using 8,000 cells per well and 3-fold viral dilutions across a 96-well plate, cultured for 4 days. Viral stock titers were also quantified by a plaque forming unit assay, as described elsewhere.
# Following extensive parameter testing, the final assay is run as follows: Hep-2 cells are seeded into the inner 60 wells of a 96-well plate at 8,000 cells per well in a volume of 50 μL using Growth Media (DMEM without phenol red, 1% L-Glut, 1% Penn/Strep, 1% nonessential amino acids, 10% heat-inactivated FBS). 2-fold serial dilutions of control and test compounds are added to the wells in duplicate in a total volume of 25 μL. Viral stock is then added to the wells at a multiplicity of infection (MOI) of 0.1 in a volume of 25 μL, bringing the total volume of each well to 100 μL. The MOI is calculated using the PFU/mL, or TCID50 if unavailable. Each 96-well plate has a control column of 6 wells with cells and virus but no compound (negative control, max CPE), a column with cells but no compound or virus (positive control, minimum CPE), and a column with no cells or virus or compound (background plate/reagent control). The control wells with cells but no virus are given an additional 25 μL of growth media containing an equal quantity of sucrose as those wells receiving the viral stock in order to keep consistent in media and volume conditions. The outer wells of the plate are filled with 125 μL of moat media (DMEM, 1% Penn/Strep) to act as a thermal and evaporative moat around the test wells. Following a 5-day incubation period, the plates are read using ATPlite (50 uL added per well), which quantifies the amount of ATP (a measure of cell health) present in each well. Assay plates are read using the Envision luminometer. […] EC50 ranges are as follows: A<0.2 μM; B>0.2 μM.
smiles,measurement,setting,value
COc1cc(C(=O)NC[C@@](O)(c2ccccc2)c2cc3c(c(-c4cc(Cl)c(F)cc4F)n2)OC[C@]3(C)C(N)=O)cc2ccc(C)nc12 [Example 79],EC50,[1],< 500 nM
C[C@]1(C(N)=O)COc2c1cc([C@@](O)(CNC(=O)c1ccc3nc(C(F)(F)F)oc3c1)c1ccccc1)nc2-c1cc(Cl)c(F)cc1F [Example 82],EC50,[1],> 500 nM
COc1cc(C(=O)NC[C@](O)(c2cccc(F)c2)c2cc3c(c(-c4ccc(C(C)(C)O)cc4)n2)OC[C@]3(C)C(N)=O)cc2cn(C3(F)CC3)nc12 [Example 398],EC50,[2],> 200 nM
same,EC50,[3],> 200 nM
COc1cc(C(=O)NC[C@@](O)(c2cccc(F)c2)c2cc3c(c(-c4cccc(Cl)c4Cl)n2)OC[C@]3(C)C(N)=O)cc2cc(C3CC3)nn12 [Example 336],EC50,[2],< 200 nM
same,EC50,[3],< 200 nM
COc1cc(C(=O)NC[C@@](O)(c2cccc(F)c2)c2cc3c(c(-c4cc(C(F)(F)F)c(F)cc4F)n2)OC[C@]3(C)C(N)=O)cc2cn(C(F)F)nc12 [Example 301],EC50,[2],< 200 nM
same,EC50,[3],< 200 nM
C[C@]1(C(N)=O)COc2c1cc([C@@](O)(CNC(=O)c1cc(Cl)c3nn(C4CC4)cc3c1)c1ccccc1)nc2-c1cc(Cl)c(F)cc1F [Example 99],EC50,[2],< 200 nM
same,EC50,[3],< 200 nM
COc1cc(C(=O)NC[C@@](O)(c2cccc(S(C)(=O)=O)c2)c2cc3c(c(-c4cc(Cl)c(F)cc4F)n2)OC[C@]3(C)C(N)=O)cc2cn(C3CC3)nc12 [Example 483],EC50,[2],< 200 nM
same,EC50,[3],< 200 nM
C[C@]1(C(N)=O)COc2c1cc([C@@](O)(CNC(=O)c1ccc3nc(C4CC4)oc3c1)c1ccccc1)nc2-c1cccc(Cl)c1Cl [Example 97],EC50,[2],< 200 nM
same,EC50,[3],< 200 nM
COc1cc(C(=O)NC[C@@](O)(c2ccc(=O)[nH]c2)c2cc3c(c(-c4cc(Cl)c(F)cc4F)n2)OC[C@]3(C)C(N)=O)cc2cn(C3CC3)nc12 [Example 505],EC50,[2],> 200 nM
same,EC50,[3],< 200 nM
COc1cccc([C@](O)(CNC(=O)c2cc(OC)c3nn(C4CC4)cc3c2)c2cc3c(c(-c4cccc(Cl)c4Cl)n2)OC[C@]3(C)C(N)=O)n1 [Example 496],EC50,[2],< 200 nM
same,EC50,[3],< 200 nM
COc1cc(C(=O)NC[C@@](O)(c2cc[nH]c(=O)c2)c2cc3c(c(-c4cc(Cl)c(F)cc4F)n2)OC[C@]3(C)C(N)=O)cc2cn(C3CC3)nc12 [Example 504],EC50,[2],> 200 nM
same,EC50,[3],< 200 nM
COc1cc(C(=O)NC[C@@](O)(c2ccccc2)c2cc3c(c(-c4cc(C(F)(F)F)c(F)cc4F)n2)OC[C@]3(C)C(N)=O)cc2cn(C(F)F)nc12 [Example 304],EC50,[2],< 200 nM
same,EC50,[3],< 200 nM
COc1cc(C(=O)NC[C@@](O)(c2ccccc2)c2cc3c(c(-c4cccc(Cl)c4F)n2)OC[C@]3(C)C(N)=O)cc2cn(C3(F)CC3)nc12 [Example 369],EC50,[2],< 200 nM
same,EC50,[3],< 200 nM
COc1cc(C(=O)NC[C@@](O)(c2cccc(F)n2)c2cc3c(c(-c4cc(Cl)c(F)cc4F)n2)OC[C@]3(C)C(N)=O)cc2cc(C3CC3)nn12 [Example 206],EC50,[2],< 200 nM
same,EC50,[3],< 200 nM
COc1cc(C(=O)NC[C@@](O)(c2ccccc2)c2cc3c(c(-c4cc(Cl)c(F)cc4F)n2)OC[C@]3(C)C(N)=O)cc2cc(Cl)nnc12 [Example 113],EC50,[2],< 200 nM
same,EC50,[3],< 200 nM
COc1cc(C(=O)NC[C@](O)(c2cccc(F)c2)c2cc3c(c(-c4cc(F)c(F)cc4C(N)=O)n2)OC[C@]3(C)C(N)=O)cc2cn(C3(F)CC3)nc12 [Example 406],EC50,[2],> 200 nM
same,EC50,[3],> 200 nM
C[C@]1(C(N)=O)COc2c1cc([C@@](O)(CNC(=O)c1cc(F)c3nn(C4CC4)cc3c1)c1ccccc1)nc2-c1cc(Cl)c(F)cc1F [Example 100],EC50,[2],< 200 nM
same,EC50,[3],< 200 nM
COc1cc(C(=O)NC[C@@](O)(c2ccccc2)c2cc3c(c(-c4ccc(S(C)(=O)=O)cc4F)n2)OC[C@]3(C)C(N)=O)cc2cn(C3(F)CC3)nc12 [Example 371],EC50,[2],> 200 nM
same,EC50,[3],< 200 nM
COc1cc(C(=O)NC[C@@](O)(c2cccc(F)n2)c2cc3c(c(-c4cc(Cl)c(F)cc4F)n2)OC[C@]3(C)C(N)=O)cc2cn(C3CC3)nc12 [Example 203],EC50,[2],< 200 nM
same,EC50,[3],< 200 nM
COc1cc(C(=O)NC[C@@](O)(c2ccccc2)c2cc3c(c(-c4cc(C(F)(F)F)c(F)cc4F)n2)OC[C@]3(C)C(N)=O)cc2cn(C3(F)CC3)nc12 [Example 303],EC50,[2],< 200 nM
same,EC50,[3],< 200 nM
COc1cc(C(=O)NC[C@@](O)(c2ccccc2)c2cc3c(c(-c4cccc(Cl)c4Cl)n2)OC[C@]3(C)C(N)=O)cc2oc(C3CC3)nc12 [Example 96],EC50,[2],< 200 nM
same,EC50,[3],< 200 nM
COc1cc(C(=O)NC[C@@](O)(c2ccnc(C#N)c2)c2cc3c(c(-c4cc(Cl)c(F)cc4F)n2)OC[C@]3(C)C(N)=O)cc2cn(C3CC3)nc12 [Example 501],EC50,[2],< 200 nM
same,EC50,[3],< 200 nM
COc1cc(C(=O)NC[C@@](O)(c2cccc(F)c2)c2cc3c(c(-c4ccc5c(c4Cl)OC(F)(F)O5)n2)OC[C@]3(C)C(N)=O)cc2oc(C3CC3)nc12 [Example 286],EC50,[2],< 200 nM
same,EC50,[3],< 200 nM
COc1cc(C(=O)NC[C@@](O)(c2cccc(F)n2)c2cc3c(c(-c4ccc(F)c(Cl)c4Cl)n2)OC[C@]3(C)C(N)=O)cc2cn(C3CC3)nc12 [Example 340],EC50,[2],< 200 nM
same,EC50,[3],< 200 nM
COc1cc(C(=O)NC[C@@](O)(c2ccccc2)c2cc3c(c(-c4cc(Cl)c(F)cc4F)n2)OC[C@]3(C)C(N)=O)cc2oc(C3(F)CC3)nc12 [Example 241],EC50,[2],< 200 nM
same,EC50,[3],< 200 nM
COc1cc(C(=O)NC[C@@](O)(c2ccccc2)c2cc3c(c(-c4cc(F)c(F)cc4F)n2)OC[C@]3(C)C(N)=O)cc2oc(C)nc12 [Example 193],EC50,[2],< 200 nM
same,EC50,[3],< 200 nM
COc1cc(C(=O)NC[C@@](O)(c2cccc(F)c2)c2cc3c(c(-c4ccc5c(c4Cl)OC(F)(F)O5)n2)OC[C@]3(C)C(N)=O)cc2oc(C)nc12 [Example 285],EC50,[2],< 200 nM
same,EC50,[3],< 200 nM
[2H]c1nc2c(OC)cc(C(=O)NC[C@@](O)(c3ccccc3)c3cc4c(c(-c5cc(Cl)c(F)cc5F)n3)OC[C@]4(C)C(N)=O)cc2cc1Cl [Example 220],EC50,[2],< 200 nM
same,EC50,[3],< 200 nM
